Measured values taken from patent US20250302799A1, “PHARMACEUTICAL COMPOSITION CONTAINING FRAXETIN FOR PREVENTION OR TREATMENT OF ENDOMETRIOSIS” (Research & Business Foundation Sungkyunkwan University, priority 2024, published 2025).

Assays:
VK2/E6E7 cells [1] = assay: Mitochondrial membrane potential by JC-1 staining; format: cell-based, human; details: VK2/E6E7
endometrial cells [2] = assay: Western blot analysis (cell line not stated); format: cell-based, human
Protocol: (§1) To analyze protein expression related to the development of endometriosis following fraxetin treatment, the inventors conducted western blot analysis.
(§2) Briefly, endometrial cells were treated with fraxetin in a dose-dependent manner or in combination with signaling pathway inhibitors. Total proteins were extracted from the treated cells, and protein quantification was performed using the Bradford protein assay (Bio-Rad, Hercules, CA, USA). The extracted proteins were then denatured at 95° C. for 5 minutes and subjected to electrophoresis on a 10% SDS/PAGE gel before being transferred to a nitrocellulose membrane. The membrane was subsequently incubated with primary and secondary antibodies, and target protein expression was analyzed using chemiluminescence detection reagents (Supersignal West Pico, Pierce, Rockford, IL, USA) with the ChemiDoc EQ system and Quantity One software (Bio-Rad).

End1/E6E7 cells [3] = assay: Mitochondrial membrane potential by JC-1 staining; format: cell-based, human; details: End1/E6E7
Protocol: To examine changes in mitochondrial membrane potential (MMP) in endometrial cells induced by fraxetin, the inventors used a mitochondria staining kit (Cat no: CS0390, Sigma-Aldrich) to measure MMP.
In brief, End1/E6E7 and […] endometrial cell lines were cultured in 6-well plates, treated with fraxetin in a dose-dependent manner (0 μM, 5 μM, 10 μM, 20 μM, 50 μM, 100 μM), and incubated at 37° C. in a 5% CO2 incubator for 48 hours. Afterward, the cells were detached using trypsin, centrifuged to obtain cell pellets, resuspended in JC-1 staining solution, and incubated at 37° C. in a 5% CO2 incubator for 20 minutes. The stained cells were centrifuged again, washed with 1X JC-1 staining buffer, and analyzed using flow cytometry to assess changes in mitochondrial membrane potential.

End1/E6E7 cells [4] = assay: Western blot analysis of protein expression and phosphorylation; format: cell-based, human
Protocol: as §1, §2

VK2/E6E7 cells [5] = assay: as above; format: cell-based, human
Protocol: as §1, §2

End1/E6E7 cells [6] = assay: Apoptosis by Annexin V and propidium iodide staining; format: cell-based, human
Protocol: (§3) To assess the apoptosis-inducing effect of fraxetin in endometrial cells, the inventors used a FITC Annexin V Apoptosis Detection Kit I (BD Sciences).
(§4) First, VK2/E6E7 and End1/E6E7 cells were cultured in 6-well plates, treated with fraxetin in a dose-dependent manner (0 μM, […], 10 μM, 20 µM, 50 μM, 100 μM), and incubated for 48 hours at 37° C. in a 5% CO2 incubator. The cells were then detached using trypsin, washed with PBS, and mixed slowly with 1 mL of 1X binding buffer. After centrifugation, the cell pellet was resuspended in 200 μL of 1X binding buffer. The suspension (100 μL) was transferred to a 1.5 mL brown tube, and 5 μL of Annexin V and PI (propidium iodide) were added, followed by staining at room temperature for 15 minutes. After adding 400 μL of 1X binding buffer, the stained solution was transferred to a 5 mL FACS tube, and the number of apoptotic cells was measured by analyzing fluorescence intensity using flow cytometry.

VK2/E6E7 cells [7] = assay: as above; format: cell-based, human
Protocol: as §3, §4

endometrial cells [8] = assay: tiRNA expression by real-time PCR (cell line not stated); format: cell-based, human; details: following fraxetin treatment
Protocol: To confirm the expression of tiRNA (tRNA-derived stress-induced RNAs) associated with the development of endometriosis, the inventors conducted real-time PCR.
First, information on candidate tiRNA sequences and mature tRNA sources was obtained from MINTbase (https://cm.jefferson.edu/MINTbase/). miRNA CDNA synthesis was performed using a cDNA kit (Agilent Technologies) to confirm tiRNA expression, with U6 snRNA used for normalization. For transfection of the tiRNA^His GTG inhibitor (5′-AACCGAGAGUACUAACCACUAUACGAUCACCGC-3′) (40 nM), Lipofectamine 2000 was used in Opti-MEM.

endometriotic lesions = assay: Gene expression in endometriotic lesion tissue of the animal model; format: in vivo, C57/BL6 mice
Protocol: Seven-week-old female C57/BL6 mice were purchased from DBL (Eumseong, South Korea). After a 7-day acclimation period, they were subcutaneously injected with 2 mg/50 μL of progesterone two days before surgery. After anesthetizing the mice, the […] was excised and autografted onto the peritoneum to induce endometriosis. After culturing for two weeks, the mice were randomly assigned to groups and administered either a vehicle as the control, fraxetin at 30mg/kg, or dienogest at 1 mg/kg orally for four weeks.

End1/E6E7 cells [9] = assay: Wound healing / cell migration assay; format: cell-based, human; details: End1/E6E7, 50 μM fraxetin; vehicle 88%
Protocol: (§5) To measure the effects of fraxetin on endometrial cell migration, the inventors used a migration culture dish insert from Ibidi to analyze cell mobility.
(§6) In brief, endometrial cells (VK2/E6E7, End1/E6E7) were placed in compartmentalized wells within the culture dish and cultured until they filled the compartments. Afterward, the insert separating the compartments was removed, creating a 500 μm gap for cell migration. The cells were then cultured with medium containing fraxetin at 37° C. in a 5% CO2 incubator. Cell movement across the gap was observed using an optical microscope (DM3000, Leica) and photographed, and the migration distance was calculated and quantified.

VK2/E6E7 cells [10] = assay: Wound healing / cell migration assay; format: cell-based, human; details: vehicle 90%
Protocol: as §5, §6

## COc1cc2ccc(=O)oc2c(O)c1O [fraxetin]
VK2/E6E7 cells [1]
  relative membrane potential loss rate increase: 2.6 fold
Endometrial cells [2]; 20 μM and 50 μM fraxetin
  level of GRP78 compared to control: 1.9 fold
Endometrial cells [2]; 50 μM fraxetin
  JNK phosphorylation (remaining): below 50%
Endometrial cells [2]; fraxetin-treated
  eIF2α phosphorylation: tended to increase
End1/E6E7 cells [3]
  relative membrane potential loss rate increase: 1.8 fold
End1/E6E7 cells [4]; 20 μM fraxetin, End1/E6E7
  reduction of S6 phosphorylation: 59%
End1/E6E7 cells [4]; 50 μM fraxetin, End1/E6E7
  ERK1/2 phosphorylation: 0.51 fold
End1/E6E7 cells [4]; 50 μM fraxetin, first value, End1/E6E7 assumed
  p38 phosphorylation compared to control: 0.61 fold
End1/E6E7 cells [4]; End1/E6E7
  IRE1α expression: 1.7 fold
  expression of anti-apoptotic protein Bcl-xL: reduced
  inhibition of AKT phosphorylation compared to control: 57%
  pro-apoptotic protein BAK: increased
  pro-apoptotic protein BAX: increased
VK2/E6E7 cells [5]; 50 μM fraxetin, VK2/E6E7
  ERK1/2 phosphorylation: 0.61 fold
VK2/E6E7 cells [5]; 50 μM fraxetin, second value, VK2/E6E7 assumed
  p38 phosphorylation compared to control: 0.47 fold
VK2/E6E7 cells [5]; VK2/E6E7
  IRE1α expression: 0.53 fold
  expression of anti-apoptotic protein Bcl-xL: reduced
  pro-apoptotic protein BAK: increased
  pro-apoptotic protein BAX: increased
End1/E6E7 cells [6]; End1/E6E7, Example 6
  early and late apoptosis cell populations: tended to increase
End1/E6E7 cells [6]; End1/E6E7, Example 7 comparison fraxetin vs dienogest
  early and late apoptosis: induced both early and late apoptosis
VK2/E6E7 cells [7]; VK2/E6E7, Example 6
  early and late apoptosis cell populations: tended to increase
VK2/E6E7 cells [7]; VK2/E6E7, Example 7 comparison fraxetin vs dienogest
  early and late apoptosis: induced both early and late apoptosis
Endometrial cells [8]
  mRNA expression of tiRNA^GlyCCC, tiRNA^ValCAC, tiRNA^AspGTC and tiRNA^GluCTC: minimal change
  tiRNA^HisGTG expression: increased by more than twofold
Endometriotic lesions; endometriotic lesions
  expression of adhesion-related genes (Icam1, Vcam1, Itga1, Itga5): inhibited
  expression of apoptosis-related genes (Bak1, Bax, Bad, Casp1): increased
  expression of endoplasmic reticulum stress-related genes (Hspa5, Elf2s1, Ern1): increased
  expression of mitochondrial function-related genes (Atp5me, Atp5pb, Atp5po): decreased
Endometriotic lesions; endometriotic lesions, compared to control group
  mRNA expression of inflammation-related genes (Il4, Cxcl15, Il8, Il21, Tnf, Il4ra, Cxcr1, Cxcr2, Il18r, Il21r, Tnfrsfa): significantly reduced
Endometriotic lesions; fraxetin-treated group compared to control group
  expression of Icam1 and Vcam1 within the lesion tissue: reduced
End1/E6E7 cells [9]
  wound closure: 7%
VK2/E6E7 cells [10]
  wound closure: 18%
